In paper PMC10733197, “Utilization of Rosuvastatin and Endogenous Biomarkers in Evaluating the Impact of Ritlecitinib on BCRP, OATP1B1, and OAT3 Transporter Activity” (Pharmaceutical Research, 2023):
Values joined by “and” are separate entries in the source; they are usually repeats but may differ in a detail not shown here. Equal values may be shown once.

Legend:
OATP1B1 = target: T1, OATP1B1 (Homo sapiens, UniProt Q9Y6L6); assay: OATP1B1-mediated rosuvastatin uptake inhibition in transfected HEK293 cells; type: cell-based; details: for IC50: hepatic OATP1B1, RSV 0.3–0.5 µM as substrate, 1—3 min, HEK293, mean ± SD, n = 3; for R-value: 1 + (Imax,inlet,u/IC50), cutoff 1.1 (FDA), 1.04 (EMA)
T1 construct: expressed in transfected cells; host or cells: HEK293
T1 sequence (Q9Y6L6 1-691): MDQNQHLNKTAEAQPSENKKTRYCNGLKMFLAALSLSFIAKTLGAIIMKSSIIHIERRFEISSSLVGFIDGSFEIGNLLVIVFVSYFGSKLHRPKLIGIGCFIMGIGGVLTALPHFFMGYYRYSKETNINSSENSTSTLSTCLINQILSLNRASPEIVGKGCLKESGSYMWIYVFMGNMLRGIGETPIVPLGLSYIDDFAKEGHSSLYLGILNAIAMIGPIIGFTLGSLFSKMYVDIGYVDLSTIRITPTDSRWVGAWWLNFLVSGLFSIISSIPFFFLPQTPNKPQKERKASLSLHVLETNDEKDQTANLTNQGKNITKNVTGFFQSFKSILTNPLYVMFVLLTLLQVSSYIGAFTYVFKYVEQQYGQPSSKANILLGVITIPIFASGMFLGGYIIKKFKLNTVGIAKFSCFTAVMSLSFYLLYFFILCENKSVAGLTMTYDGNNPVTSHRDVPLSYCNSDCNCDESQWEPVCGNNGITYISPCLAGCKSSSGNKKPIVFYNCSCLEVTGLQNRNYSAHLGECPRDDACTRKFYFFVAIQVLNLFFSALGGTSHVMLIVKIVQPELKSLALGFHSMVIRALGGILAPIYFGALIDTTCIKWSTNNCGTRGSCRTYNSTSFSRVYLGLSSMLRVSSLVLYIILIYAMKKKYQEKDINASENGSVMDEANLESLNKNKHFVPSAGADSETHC
Description: (§1) Sources of human embryonic kidney (HEK) 293 cells expressing individual transfected human solute carriers (SLC), test substrates, and cell culture reagents, as well as detailed cell culture methods, incubations, and sample processing, have been described previously. SLC included hepatic OATP1B1, OATP1B3, and renal OAT1 and OAT3. […] Likewise, the uptake of non-labeled rosuvastatin (Biosynth, San Diego, CA) at 0.3—0.5 µM was determined for OATP1B1 and OATP1B3 at 1—3 min, and CP-I (Frontier Specialty Chemicals, Logan, UT) at 0.1 µM was determined for OATP1B1 and OATP1B3 at 10 min [14].
(§2) In all cases, ritlecitinib (0.018 to 1000 µM) and metabolite M2 (0.018 to 300 µM) was tested over a wide range of final concentrations dissolved in dimethyl sulfoxide (the final concentration of dimethyl sulfoxide in the assays was 1% v/v). For each transporter, the IC50 was estimated using a four-parameter logistic equation (Eq. 1) using GraphPad Prism software (GraphPad Software Inc, La Jolla, CA).1 %UptakeActivity=Bottom+(Top-Bottom)/1+10^(LogIC50-inhib*HillSlope)
(§3) At the end of the uptake and inhibition experiment, cellular accumulation of ^3H-PAH and ^3H-E3S was determined using liquid scintillation counting as previously described. Rosuvastatin uptake was determined using a tandem high performance liquid chromatography (LC)-mass spectrometry (MS) assay.

OATP1B3 = target: T2, OATP1B3 (Homo sapiens, UniProt Q9NPD5); assay: OATP1B3-mediated rosuvastatin uptake inhibition in transfected HEK293 cells; type: cell-based; details: for IC50: hepatic OATP1B3, RSV 0.3–0.5 µM as substrate, 1—3 min, HEK293, mean ± SD, n = 3
T2 construct: expressed in transfected cells; host or cells: HEK293
T2 sequence (Q9NPD5 1-702): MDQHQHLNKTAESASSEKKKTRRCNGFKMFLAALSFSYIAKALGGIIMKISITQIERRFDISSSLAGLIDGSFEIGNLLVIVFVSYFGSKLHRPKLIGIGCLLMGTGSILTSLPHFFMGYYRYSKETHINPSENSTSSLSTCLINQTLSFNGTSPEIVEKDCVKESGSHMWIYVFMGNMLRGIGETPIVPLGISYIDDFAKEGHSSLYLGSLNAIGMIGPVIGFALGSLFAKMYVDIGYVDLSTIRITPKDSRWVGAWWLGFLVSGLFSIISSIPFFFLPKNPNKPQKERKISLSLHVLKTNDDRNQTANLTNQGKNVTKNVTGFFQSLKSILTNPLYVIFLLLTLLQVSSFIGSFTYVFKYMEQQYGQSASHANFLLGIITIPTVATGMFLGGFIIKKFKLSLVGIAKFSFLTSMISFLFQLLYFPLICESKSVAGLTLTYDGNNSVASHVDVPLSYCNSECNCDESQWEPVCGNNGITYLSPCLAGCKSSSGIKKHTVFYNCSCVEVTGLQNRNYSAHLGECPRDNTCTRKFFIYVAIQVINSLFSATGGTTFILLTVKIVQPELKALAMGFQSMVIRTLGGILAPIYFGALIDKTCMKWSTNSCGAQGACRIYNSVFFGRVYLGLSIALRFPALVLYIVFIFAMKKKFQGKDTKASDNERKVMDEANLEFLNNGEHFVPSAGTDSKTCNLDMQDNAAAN
Description: as §1, §2, §3

[1] = Inhibitor exposure estimates and PK inputs for static drug interaction risk assessment; details: for Cmax,u: maximal free plasma concentration (Cmax × fu) at ritlecitinib 200 mg
OAT1 = target: T3, OAT1 (Homo sapiens, UniProt Q4U2R8); assay: OAT1-mediated 3H-PAH uptake inhibition in transfected HEK293 cells; type: cell-based; set-up: expressed in transfected cells; host or cells: HEK293; details: for Fraction Inhibited / Triggers Drug Interaction Cutoff / Cmax,u/IC50 ratio: OAT1; for Fraction Inhibited: Cmax,u/(Cmax,u + IC50) (Eq. 2); for Triggers Drug Interaction Cutoff: Cmax,u/IC50 cutoff 0.1 (FDA); for Triggers Drug Interaction Cutoff / Cmax,u/IC50 ratio: 0.02 (EMA); for Cmax,u/IC50 ratio: cutoff 0.1 (FDA), ritlecitinib 200 mg; for IC50: renal OAT1, PAH 0.5 µM as substrate, 4 min, HEK293, mean ± SD, n = 3
T3 sequence (Q4U2R8 1-563): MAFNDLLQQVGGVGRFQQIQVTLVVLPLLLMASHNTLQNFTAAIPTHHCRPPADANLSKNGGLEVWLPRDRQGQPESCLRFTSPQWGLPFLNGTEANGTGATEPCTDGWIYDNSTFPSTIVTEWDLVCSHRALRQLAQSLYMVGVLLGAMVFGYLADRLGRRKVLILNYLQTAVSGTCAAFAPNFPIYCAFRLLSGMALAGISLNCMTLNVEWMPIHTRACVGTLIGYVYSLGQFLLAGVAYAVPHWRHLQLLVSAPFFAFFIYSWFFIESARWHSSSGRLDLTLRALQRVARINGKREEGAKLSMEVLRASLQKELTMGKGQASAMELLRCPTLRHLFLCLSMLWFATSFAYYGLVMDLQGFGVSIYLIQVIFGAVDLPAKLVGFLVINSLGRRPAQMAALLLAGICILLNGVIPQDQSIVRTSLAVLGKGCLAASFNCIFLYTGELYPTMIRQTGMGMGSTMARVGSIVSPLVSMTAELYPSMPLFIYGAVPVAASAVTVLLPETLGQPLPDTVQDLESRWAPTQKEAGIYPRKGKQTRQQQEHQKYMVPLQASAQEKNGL
Description: as §1, §2, §3
Assumes no substrate-dependent shift in IC50 versus PDA.^1 Each OAT form was singularly transfected in human embryonic kidney 293 cells.

SMILES: C[C@H]1CC[C@@H](Nc2ncnc3[nH]ccc23)CN1C(=O)CCSC[C@H](N)C(=O)O [M2]
- Triggers Drug Interaction Cutoff (OATP1B1; OATP1B1 (RSV)): Yes
- Cmax,u/IC50 ratio (OATP1B1; OATP1B1 (RSV), Cmax,u used for metabolite M2): 0.70
- Fraction Inhibited (OATP1B1; OATP1B1 (RSV), Cmax,u/(Cmax,u + IC50) for M2 (Eq. 3)): 0.4
- IC50 (OATP1B1): 2 ± 0.03 µM
- Triggers Drug Interaction Cutoff (OATP1B3; OATP1B3 (RSV)): Yes
- Cmax,u/IC50 ratio (OATP1B3; OATP1B3 (RSV), Cmax,u used for metabolite M2): 0.17
- Fraction Inhibited (OATP1B3; OATP1B3 (RSV), Cmax,u/(Cmax,u + IC50) for M2 (Eq. 3)): 0.1
- IC50 (OATP1B3): 8.4 ± 0.2 µM
- Cmax,u [1]: 1.4 μM and 1.4^j μM
- % inhibition at the highest concentration tested (OAT1; OAT1 (PAH), highest concentration 300 µM): 40%
- Fraction Inhibited (OAT1): < 0.01
- Triggers Drug Interaction Cutoff (OAT1): No
- Cmax,u/IC50 ratio (OAT1): < 0.01
- IC50 (OAT1): > 300 µM

SMILES: C=CC(=O)N1C[C@H](Nc2ncnc3[nH]ccc23)CC[C@@H]1C [Ritlecitinib, ritlecitinib]
- Triggers Drug Interaction Cutoff (OATP1B1; OATP1B1 (RSV)): Yes
- R-value (OATP1B1; OATP1B1 (RSV)): 1.10
- R-value (OATP1B1; OATP1B1 (RSV), listed as ritlecitinib): 1.1
- Fraction Inhibited (OATP1B1; OATP1B1 (RSV), Imax,inlet,u/(Imax,inlet,u + IC50) (Eq. 1)): 0.09
- Fraction Inhibited (OATP1B1; OATP1B1 (RSV), Imax,inlet,u/(Imax,inlet,u + IC50) (Eq. 1), listed as ritlecitinib): ≤ 0.1
- IC50 (OATP1B1): 312 ± 19 µM
- Triggers Drug Interaction Cutoff (OATP1B3; OATP1B3 (RSV)): No
- R-value (OATP1B3; OATP1B3 (RSV), 1 + (Imax,inlet,u/IC50), cutoff 1.1 (FDA), 1.04 (EMA)): 1.03
- Fraction Inhibited (OATP1B3; OATP1B3 (RSV), Imax,inlet,u/(Imax,inlet,u + IC50) (Eq. 1)): 0.03
- Fraction Inhibited (OATP1B3; OATP1B3 (RSV), Imax,inlet,u/(Imax,inlet,u + IC50) (Eq. 1), listed as ritlecitinib): ≤ 0.1
- IC50 (OATP1B3): 934 ± 59 µM
- Imax,inlet,u ([1]; estimated maximal free hepatic portal concentration, ritlecitinib 200 mg): 31.7 µM
- Cmax,u [1]: 4.7 µM
- [I]2 ([1]; oral molar dose of ritlecitinib (200 mg)/250 mL): 2803 µM
- Fraction Inhibited (OAT1): 0.03
- Fraction Inhibited (OAT1; listed as ritlecitinib): ≤ 0.1
- Triggers Drug Interaction Cutoff (OAT1): Yes
- Cmax,u/IC50 ratio (OAT1): 0.03
- IC50 (OAT1): 156 ± 6 µM
